Measured values as given in patent US8574563B2 (Bristol-Myers Squibb Company, priority 2006, dated 2013).
Like-named read-outs stand apart in the source and are kept apart here.

Test system: HCV 1b-377-neo replicon cells
Assay: HCV replicon assay, HCV 1b-377-neo replicon cells (1b FRET)
Format: cell-based, Hepatitis C virus genotype 1b
Details: HCV 1b-377-neo replicon cells, HCV 1b genotype, read-out: EC50 range against HCV 1b (Table 2, Range)
How it was run: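 Compounds tested in HCV genotype 1b-377-neo replicon cells with a FRET read-out. Cells resistant to a reference NS5A inhibitor through a Y2065H NS5A mutation were run alongside wild-type cells.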

Compound	EC50 (Hepatitis C virus) [nM]	EC50 [nM]
CCN(CC)[C@@H](C(=O)N1CCC[C@H]1c1ncc(-c2ccc(-c3ccc(-c4cnc([C@@H]5CCCN5C(=O)[C@H](NC(=O)OC)c5ccccc5)[nH]4)c(F)c3)cc2)[nH]1)c1ccccc1 [Example D37, methyl ((1R)-2-((2S)-2-(5-(4′-(2-((2S)-1-((2R)-2-(diethylamino)-2-phenylacelyl)-2-pyrrolidinyl)-1H-imidazol-5-yl)-3-fluoro-4-biphenylyl)-1H-imidazol-2-yl)-1-pyrrolidinyl)-2-oxo-1-phenylethyl)carbamate]	0.001 to 0.999	–
Cc1cc(-c2cnc([C@@H]3CCCN3C(=O)[C@@H](c3ccccc3)N(C)C)[nH]2)ccc1-c1ccc(-c2cnc([C@@H]3CCCN3C(=O)[C@@H](c3ccccc3)N(C)C)[nH]2)cc1C [Example 121]	0.001 to 0.999	–
CNC(=O)c1nc([C@@H]2CCCN2C(=O)[C@@H](c2ccccc2)N(C)C)[nH]c1-c1ccc(-c2ccc(-c3cnc([C@@H]4CCCN4C(=O)[C@@H](c4ccccc4)N(C)C)[nH]3)cc2)cc1 [Example J26]	0.001 to 0.999	–
COC(=O)N[C@H](C(=O)N1CCC[C@H]1c1ncc(-c2ccc(-c3ccc(-c4cnc([C@@H]5CCCN5C(=O)[C@@H](NC(=O)OC)C5CC5)[nH]4)c(F)c3)cc2)[nH]1)C(C)C [Example D50, methyl ((1S)-1-cyclopropyl-2-((2S)-2-(5-(3-fluoro-4′-(2-((2S)-1-(N-(methoxycarbonyl)-L-valyl)-2-pyrrolidinyl)-1H-imidazol-5-yl)-4-biphenylyl)-1H-imidazol-2-yl)-1-pyrrolidinyl)-2-oxoethyl)carbamate]	0.001 to 0.999	–
COC(=O)N[C@@H](Cc1ccc(OCc2ccccc2)cc1)C(=O)N1CCC[C@H]1c1ncc(-c2ccc(-c3ccc(-c4cnc([C@@H]5CCCN5C(=O)[C@@H](NC(=O)OC)[C@@H](C)OC)[nH]4)cc3)cc2)[nH]1 [cj-105, methyl ((1S,2R)-1-(((2S)-2-(5-(4′-(2-((2S)-1-(O-benzyl-N-(methoxycarbonyl)-L-tyrosyl)-2-pyrrolidinyl)-1H-imidazol-5-yl)-4-biphenylyl)-1H-imidazol-2-yl)-1-pyrrolidinyl)carbonyl)-2-methoxypropyl)carbamate]	0.001 to 0.999	–
COC(=O)N[C@@H](C(=O)N1CCC[C@H]1c1ncc(-c2ccc(-c3ccc(-c4cnc([C@@H]5CCCN5C(=O)[C@@H](OC(C)=O)c5ccccc5)[nH]4)cc3)cc2)[nH]1)c1ccccc1 [Example 84-83, (1S)-2-((2S)-2-(5-(4′-(2-((2S)-1-((2R)-2-((methoxycarbonyl)amino)-2-phenylacetyl)-2-pyrrolidinyl)-1H-imidazol-5-yl)-4-biphenylyl)-1H-imidazol-2-yl)-1-pyrrolidinyl)-2-oxo-1-phenylethyl acetate]	0.001 to 0.999	–
COC(=O)N[C@@H](C(=O)N1CC(F)(F)C[C@H]1c1nc(-c2ccc(-c3ccc(-c4cnc([C@@H]5CC(F)(F)CN5C(=O)[C@H](NC(=O)OC)c5ccccc5)[nH]4)cc3)cc2)c[nH]1)c1ccccc1 [Example 24-9, dimethyl (4,4′-biphenyldiylbis(1H-imidazole-4,2-diyl((2S)-4,4-difluoro-2,1-pyrrolidinediyl)((1R)-2-oxo-1-phenyl-2,1-ethanediyl)))biscarbamate]	0.001 to 0.999	–
COC(=O)N[C@@H](C)C(=O)N1CCC[C@H]1c1ncc(-c2ccc(-c3ccc(-c4nc([C@@H]5CCCN5C(=O)[C@H](C)NC(=O)OC)[nH]c4C)cc3)cc2)[nH]1 [Example E5d, methyl ((1S)-2-((2S)-2-(4-(4′-(2-((2S)-1-(N-(methoxycarbonyl)-L-alanyl)-2-pyrrolidinyl)-4-methyl-1H-imidazol-5-yl)-4-biphenylyl)-1H-imidazol-2-yl)-1-pyrrolidinyl)-1-methyl-2-oxoethyl)carbamate]	0.001 to 0.999	–
COC(=O)N[C@@H](C(=O)N1CCC[C@H]1c1ncc(-c2ccc(-c3ccc(-c4cnc([C@@H]5CCCN5C(=O)c5ccncc5)[nH]4)cc3)cc2)[nH]1)c1ccccc1 [Example 69, methyl ((1R)-2-((2S)-2-(5-(4′-(2-((2S)-1-isonicotinoyl-2-pyrrolidinyl)-1H-imidazol-5-yl)-4-biphenylyl)-1H-imidaozl-2-yl)-1-pyrrolidinyl)-2-oxo-1-phenylethyl)carbamate]	–	0.001 to 0.999
O=C(Cc1ccccc1)N1CCC[C@H]1c1ncc(-c2ccc(-c3ccc(-c4cnc([C@@H]5CCCN5C(=O)Cc5ccccc5)[nH]4)cc3)cc2)[nH]1 [Example 7, 5,5′-(4,4′-biphenyldiyl)bis(2-((2)S-1-(phenylacetyl)-2-pyrrolidinyl)-1H-imidazole)]	–	0.001 to 0.999
O=C(C(c1ccccc1)N1CC[C@H](F)C1)N1CCC[C@H]1c1ncc(-c2ccc(-c3ccc(-c4cnc([C@@H]5CCCN5C(=O)C(c5ccccc5)N5CC[C@H](F)C5)[nH]4)cc3)cc2)[nH]1 (stereo partly drawn) [Example 19, 5,5′-(4,4′-biphenyldiyl)bis(2-((2S)-1-(((3S)-3-fluoro-1-pyrrolidinyl)(phenyl)acetyl)-2-pyrrolidinyl)-1H-imidazole)]	–	0.001 to 0.999
COC(=O)N[C@@H](C(=O)N1CCC[C@H]1c1ncc(-c2ccc(-c3ccc(-c4cnc([C@@H]5CCCN5C(=O)[C@@H](c5ccccc5)N5CCC(C)(O)CC5)[nH]4)cc3)cc2)[nH]1)c1ccccc1 [Example 84-4, methyl ((1R)-2-((2S)-2-(5-(4′-(2-((2S)-1-((2R)-2-(4-hydroxy-4-methyl-1-piperidinyl)-2-phenylacetyl)-2-pyrrolidinyl)-1H-imidazol-5-yl)-4-biphenylyl)-1H-imidazol-2-yl)-1-pyrrolidinyl)-2-oxo-1-phenylethyl)carbamate]	0.001 to 0.999	–
COC(=O)N[C@@H](C(=O)N1CCC[C@H]1c1ncc(-c2ccc(-c3ccc(-c4cnc([C@@H]5CCCN5C(=O)N5CCOCC5)[nH]4)cc3)cc2)[nH]1)c1ccccc1 [Example 78, methyl ((1R)-2-((2S)-2-(5-(4′-(2-((2S)-1-(4-morpholinylcarbonyl)-2-pyrrolidinyl)-1H-imidazol-5-yl)-4-biphenylyl)-1H-imidazol-2-yl)-1-pyrrolidinyl)-2-oxo-1-phenylethyl)carbamate]	0.001 to 0.999	–
COC(=O)N[C@@H](C(=O)N1CCC[C@H]1c1ncc(-c2ccc(-c3ccc(-c4cnc([C@@H]5CCCN5C(=O)[C@@H](c5ccccc5)N(C)C)[nH]4)cc3)cc2)[nH]1)c1ccccc1Cl [Example 107-40, methyl ((1R)-1-(2-chlorophenyl)-2-((2S)-2-(5-(4′-(2-((2S)-1-((2R)-2-(dimethylamino)-2-phenylacetyl)-2-pyrrolidinyl)-1H-imidazol-5-yl)-4-biphenylyl)-1H-imidazol-2-yl)-1-pyrrolidinyl)-2-oxoethyl) carbamate]	0.001 to 0.999	–
COC(=O)N[C@@H](C)C(=O)N1CCC[C@H]1c1ncc(-c2ccc(-c3ccc(-c4cnc([C@@H]5CCCN5C(=O)[C@H](Cc5c[nH]nn5)NC(=O)OC)[nH]4)cc3)cc2)[nH]1 [cj-33, methyl ((1S)-2-((2S)-2-(5-(4′-(2-((2S)-1-(N-(methoxycarbonyl)-L-alanyl)-2-pyrrolidinyl)-1H-imidazol-5-yl)-4-biphenylyl)-1H-imidazol-2-yl)-1-pyrrolidinyl)-2-oxo-1-(1H-1,2,3-triazol-4-ylmethyl)ethyl)carbamate]	0.001 to 0.999	–
CN(C)[C@@H](C(=O)N1CCC[C@H]1c1ncc(-c2ccc(-c3ccc(-c4cnc([C@@H]5CCCN5C(=O)C5(C)CCN(C(=O)OC(C)(C)C)CC5)[nH]4)cc3)cc2)[nH]1)c1ccccc1 [Example 94-12, tert-butyl 4-(((2S)-2-(5-(4′-(2-((2S)-1-((2R)-2-(dimethylamino)-2-phenylacetyl)-2-pyrrolidinyl)-1H-imidazol-5-yl)-4-biphenylyl)-1H-imidazol-2-yl)-1-pyrrolidinyl)carbonyl)-4-methyl-1-piperidinecarboxylate]	1 to 99	–
COC(=O)N[C@@H](C)C(=O)N1CCC[C@H]1c1ncc(-c2ccc(-c3ccc(-c4cnc([C@@H]5CCCN5C(=O)[C@H](Cc5ccc(O)cc5)NC(=O)OC)[nH]4)cc3)cc2)[nH]1 [cj-113, methyl ((1S)-1-(4-hydroxybenzyl)-2-((2S)-2-(5-(4′-(2-((2S)-1-(N-(methoxycarbonyl)-L-alanyl)-2-pyrrolidinyl)-1H-imidazol-5-yl)-4-biphenylyl)-1H-imidazol-2-yl)-1-pyrrolidinyl)-2-oxoethyl)carbamate]	0.001 to 0.999	–
O=C(N[C@@H](C(=O)N1CCC[C@H]1c1ncc(-c2ccc(-c3ccc(-c4cnc([C@@H]5CCCN5C(=O)[C@H](NC(=O)N5CCOCC5)c5ccccc5)[nH]4)cc3)cc2)[nH]1)c1ccccc1)N1CCOCC1 [Example 25-6, N,N′-(4,4′-biphenyldiylbis(1H-imidazole-5,2-diyl(2S)-2,1-pyrrolidinediyl((1R)-2-oxo-1-phenyl-2,1-ethanediyl)))di(4-morpholinecarboxamide)]	1 to 99	–
COC(=O)N[C@@H](C(=O)N1CCC[C@H]1c1ncc(-c2ccc(-c3ccc(-c4cnc([C@@H]5CCCN5C(=O)Cc5ccc(Cl)cc5)[nH]4)cc3)cc2)[nH]1)c1ccccc1 [Example 84-68, methyl ((1R)-2-((2S)-2-(5-(4′-(2-((2S)-1-((4-chlorophenyl)acetyl)-2-pyrrolidinyl)-1H-imidazol-5-yl)-4-biphenylyl)-1H-imidazol-2-yl)-1-pyrrolidinyl)-2-oxo-1-phenylethyl)carbamate]	1 to 99	–
O=C([C@H]1CCN(Cc2ccccc2)C1)N1CCC[C@H]1c1ncc(-c2ccc(-c3ccc(-c4cnc([C@@H]5CCCN5C(=O)[C@@H](c5ccccc5)N5CCCCC5)[nH]4)cc3)cc2)[nH]1 [Example 107-18, 1-((1R)-2-((2S)-2-(5-(4′-(2-((2S)-1-(((3S)-1-benzyl-3-pyrrolidinyl)carbonyl)-2-pyrrolidinyl)-1H-imidazol-5-yl)-4-biphenylyl)-1H-imidazol-2-yl)-1-pyrrolidinyl)-2-oxo-1-phenylethyl) piperidine]	0.001 to 0.999	–
